According to patent US7919622B2, “Intermediates for fluorinated tetrabenazine carbinol compounds imaging agents and probes” (priority 2007, dated 2011):

Target: T1, VMAT-2 (Homo sapiens, UniProt Q05940)
T1 construct: Novascreen Biosciences Corporation (contract assay provider) protocol Cat. No. 100-0751
Assay: VMAT-2 binding affinity measurement (Novascreen protocol Cat. No. 100-0751)
Details: for Ki: VMAT-2 binding affinity, reserpine value is the average of two Ki values; for binding affinity for VMAT-2 (in words): relative to reserpine and DTBZ controls
From the text: Novascreen, Inc. is a commercial provider of biological assays for the pharmaceutical industry. […] In addition, the binding constants Ki expressed in nano-molar (nM) concentration units indicate a very high affinity of the fluoroalkyl tetrabenazine carbinol compounds of the present invention for the VMAT-2 biomarker.

T1 sequence (Q05940 whole entry, species assumed): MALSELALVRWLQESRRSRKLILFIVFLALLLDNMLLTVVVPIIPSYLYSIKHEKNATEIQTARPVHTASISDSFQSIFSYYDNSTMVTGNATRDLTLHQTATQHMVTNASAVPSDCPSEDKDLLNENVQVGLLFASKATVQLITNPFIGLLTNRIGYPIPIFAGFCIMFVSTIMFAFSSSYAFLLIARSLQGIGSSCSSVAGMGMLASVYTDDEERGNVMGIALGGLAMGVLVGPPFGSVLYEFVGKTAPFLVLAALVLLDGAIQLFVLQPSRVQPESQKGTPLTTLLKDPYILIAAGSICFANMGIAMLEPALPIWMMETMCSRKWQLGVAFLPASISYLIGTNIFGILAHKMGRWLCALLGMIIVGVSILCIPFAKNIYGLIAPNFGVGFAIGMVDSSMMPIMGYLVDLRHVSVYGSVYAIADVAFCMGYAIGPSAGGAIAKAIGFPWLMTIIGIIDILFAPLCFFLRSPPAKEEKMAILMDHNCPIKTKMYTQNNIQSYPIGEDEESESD

Row | SMILES | Ki | binding affinity for VMAT-2 (in words)
1 | COc1cc2c(cc1OC)[C@H]1C[C@](O)(C#CCF)[C@H](CC(C)C)CN1CC2 [Compound 17] | 19 nM | very high binding affinity
2 | COc1cc2c(cc1OC)[C@H]1C[C@@](C#CCF)(OC(C)=O)[C@H](CC(C)C)CN1CC2 [Compound 16, (2R,3R,11bR)-2-(3-fluoroprop-1-ynyl)-3-isobutyl-9,10-dimethoxy-2,3,4,6,7,11b-hexahydro-1-H-pyrido[2,1-α]isoquinolin-2-yl acetate] | 19 nM | very high binding affinity
